Experimental data from patent US8642597B2, “Pyrazole compounds for controlling invertebrate pests” (BASF SE, priority 2007, dated 2014).

How the values were obtained:
Type in all cases: in vivo
[1] = test system: Cowpea Aphid (aphis craccivora); experiment: Cowpea aphid (aphis craccivora), spray on potted cowpea plants; conditions: population reduction assessed after 24, 72 and 120 hours, in comparison with untreated controls
Protocol: The active compounds were formulated in 50:50 (vol:vol) acetone:water. The test solution was prepared at the day of use.
Potted cowpea plants colonized with 100-150 aphids of various stages were sprayed after the pest population had been recorded. Population reduction was assessed after 24, 72, and 120 hours.

[2] = test system: Green Peach Aphid (Myzus persicae, Mixed Life Stages); experiment: Green peach aphid (Myzus persicae, mixed life stages), pepper leaf dip test; conditions: foliar, 120 h, after 5 days, in comparison with untreated controls
Source text: (§1) The active compounds were formulated in 50:50 (vol:vol) acetone:water and 100 ppm Kinetica™ surfactant.
Pepper plants in the 2nd leaf-pair stage (variety ‘California Wonder’) were infested with approximately 40 laboratory-reared aphids by placing infested leaf sections on top of the test plants. The leaf sections were removed after 24 hr. The leaves of the intact plants were dipped into gradient solutions of the test compound and allowed to dry. Test plants were maintained under fluorescent light (24 hour photoperiod) at about 25° C. and 20-40% relative humidity. Aphid mortality on the treated plants, relative to mortality on check plants, was determined after 5 days.

[3] = test system: Cotton Aphid (aphis gossypii, Mixed Life Stages); experiment: Cotton aphid (aphis gossypii, mixed life stages), cotyledon dip test; conditions: 120 h, mortality counts after 5 days, in comparison with untreated controls
Source text: as §1
Cotton plants at the cotyledon stage (one plant per pot) were infested by placing a heavily infested leaf from the main colony on top of each cotyledon. The aphids were allowed to transfer to the host plant overnight, and the leaf used to transfer the aphids was removed. The cotyledons were dipped in the test solution and allowed to dry. After 5 days, mortality counts were made.

[4] = test system: Vetch Aphid (Megoura viciae); experiment: Vetch aphid (Megoura viciae), bean leaf disk microtiterplate test; conditions: foliar, 144 h, concentration of the test solution 2500 mg/L, 6 days
Protocol: The active compounds were formulated in 1:3 (vol:vol) DMSO:water with different concentrations of formulated compounds.
Bean leaf disks were placed into microtiterplates filled with 0.8% agar-agar and 2.5 ppm OPUS™. The leaf disks were sprayed with 2.5 μl of the test solution and 5 to 8 adult aphids were placed into the microtiterplates which were then closed and kept at 23±1° C. and 50±5% relative humidity under fluorescent light for 6 days. Mortality was assessed on the basis of vital, reproduced aphids. Aphid mortality and fecundity was then visually assessed.

CC(C)c1c(C(=O)Nc2cccnc2)cnn1C [Compound 90]
mortality at 300 ppm [1]: ≥ 75%

CC(C)N(C(=O)c1cn(C)nc1C(F)(F)F)c1cccnc1 [Compound 130]
mortality at 300 ppm [2]: ≥ 50% | mortality at 300 ppm [3]: ≥ 75% | mortality at 2500 µg/mL [4]: ≥ 80%

CCCN(C(=O)c1cn(C)nc1C(F)(F)F)c1cccnc1 [Compound 202]
mortality at 300 ppm [2]: ≥ 50% | mortality at 300 ppm [3]: ≥ 75% | mortality at 2500 µg/mL [4]: ≥ 80% | mortality at 300 ppm [1]: ≥ 75%

CCn1cc(C(=O)N(C)c2cccnc2)cn1 [Compound 187]
mortality at 300 ppm [2]: ≥ 50% | mortality at 300 ppm [3]: ≥ 75% | mortality at 300 ppm [1]: ≥ 75%

C#CCN(C(=O)c1cn(C)nc1C(F)(F)F)c1cccnc1 [Compound 141]
mortality at 300 ppm [2]: ≥ 50% | mortality at 300 ppm [3]: ≥ 75% | mortality at 2500 µg/mL [4]: ≥ 80% | mortality at 300 ppm [1]: ≥ 75%

O=C(Nc1cccnc1)c1cnn(C(F)(F)F)c1 [Compound 205]
mortality at 300 ppm [2]: ≥ 50% | mortality at 300 ppm [3]: ≥ 75% | mortality at 2500 µg/mL [4]: ≥ 80% | mortality at 300 ppm [1]: ≥ 75%

O=C(Nc1cccnc1)c1cnn(-c2ccc(F)cc2)c1I [Compound 124]
mortality at 300 ppm [2]: ≥ 50% | mortality at 300 ppm [3]: ≥ 75% | mortality at 2500 µg/mL [4]: ≥ 80% | mortality at 300 ppm [1]: ≥ 75%

Cc1c(C(=O)Nc2cccnc2)cnn1-c1ccc(F)cc1 [Compound 165]
mortality at 300 ppm [2]: ≥ 50% | mortality at 300 ppm [3]: ≥ 75% | mortality at 2500 µg/mL [4]: ≥ 80% | mortality at 300 ppm [1]: ≥ 75%

O=C(Nc1cccnc1)c1cnn(-c2ccc(F)cc2)c1 [Compound 113]
mortality at 300 ppm [1]: ≥ 75%

CCc1c(C(=O)Nc2cccnc2)cnn1-c1ccc([N+](=O)[O-])cc1 [Compound 144]
mortality at 300 ppm [2]: ≥ 50% | mortality at 300 ppm [3]: ≥ 75% | mortality at 2500 µg/mL [4]: ≥ 80% | mortality at 300 ppm [1]: ≥ 75%

CO/N=C(/Nc1cccnc1)c1cn(C)nc1C(F)(F)F [Compound 242]
mortality at 300 ppm [2]: ≥ 50% | mortality at 300 ppm [3]: ≥ 75% | mortality at 2500 µg/mL [4]: ≥ 80% | mortality at 300 ppm [1]: ≥ 75%

Cc1cc(C(=O)Nc2cccnc2)nn1C [Compound 10]
mortality at 300 ppm [2]: ≥ 50% | mortality at 300 ppm [3]: ≥ 75% | mortality at 300 ppm [1]: ≥ 75%

Cn1ccc(C(=O)Nc2cccnc2)n1 [Compound 1]
mortality at 300 ppm [2]: ≥ 50% | mortality at 300 ppm [3]: ≥ 75% | mortality at 300 ppm [1]: ≥ 75%

Cn1ncc(C(=O)Nc2cccnc2)c1-c1ccccc1 [Compound 71]
mortality at 300 ppm [2]: ≥ 50% | mortality at 300 ppm [3]: ≥ 75% | mortality at 2500 µg/mL [4]: ≥ 80%

CC(C)n1cc(C(=O)Nc2cccnc2)cn1 [Compound 97]
mortality at 2500 µg/mL [4]: ≥ 80%

CCCCCCCn1cc(C(=O)Nc2cccnc2)cn1 [Compound 140]
mortality at 300 ppm [2]: ≥ 50% | mortality at 2500 µg/mL [4]: ≥ 80%

Cc1c(C(=O)N(C)c2cccnc2)cnn1C [Compound 178]
mortality at 300 ppm [2]: ≥ 50% | mortality at 300 ppm [3]: ≥ 75% | mortality at 300 ppm [1]: ≥ 75%

CCn1ncc(C(=O)Nc2cccnc2)c1C [Compound 72]
mortality at 300 ppm [3]: ≥ 75% | mortality at 2500 µg/mL [4]: ≥ 80% | mortality at 300 ppm [1]: ≥ 75%

CN(C(=O)c1cnn(C(F)F)c1)c1cccnc1 [Compound 222]
mortality at 300 ppm [2]: ≥ 50% | mortality at 300 ppm [3]: ≥ 75% | mortality at 300 ppm [1]: ≥ 75%

Cc1nn(C)cc1C(=O)Nc1cccnc1 [Compound 70]
mortality at 300 ppm [2]: ≥ 50% | mortality at 300 ppm [3]: ≥ 75% | mortality at 300 ppm [1]: ≥ 75%

CC(C)n1cc(C(=O)Nc2cccnc2)cn1 [Compound 200]
mortality at 300 ppm [2]: ≥ 50% | mortality at 300 ppm [3]: ≥ 75% | mortality at 300 ppm [1]: ≥ 75%

Cc1c(C(=O)Nc2cccnc2)cnn1C(F)F [Compound 208]
mortality at 300 ppm [2]: ≥ 50% | mortality at 300 ppm [3]: ≥ 75% | mortality at 300 ppm [1]: ≥ 75%

CN(C(=O)c1cnn(C)c1)c1cccnc1 [Compound 177]
mortality at 300 ppm [2]: ≥ 50% | mortality at 300 ppm [3]: ≥ 75% | mortality at 300 ppm [1]: ≥ 75%

COc1ccc(-n2ncc(C(=O)Nc3cccnc3)c2C(F)(F)F)cc1 [Compound 226]
mortality at 300 ppm [2]: ≥ 50% | mortality at 300 ppm [3]: ≥ 75% | mortality at 2500 µg/mL [4]: ≥ 80%
